The results in this text go back to patent US20250235462A1, “NOVEL CAPSID ASSEMBLY INHIBITORS” (AM SCIENCES INC, priority 2021, published 2025).

For orientation: EC50 means the concentration that produces a half-maximal response. The CC50 is the concentration that lowers cell viability or growth by half. As a reminder, the IC50 is the concentration needed to halve the response being measured. Usually inhibition stands for the drop in the measured response relative to a control, in per cent.

The structures appear in SMILES notation. Like-named read-outs stand apart in the source and are kept apart here.

Data set [1] has as its target Protein (capsid assembly) (Hepatitis B virus genotype D subtype ayw, UniProt P03146). Put plainly: Protein inhibition (capsid assembly inhibition), Table 1. Type of data set: biochemical.
The test system of a further data set is HepAD38 cells. Put plainly: Cell viability assay (EZ-Cytox) in HepAD38 cells. The following applies: 65 hours of treatment. Type of data set: cell-based. On the procedure:
(§1) HepAD38 cells were cultured for 2 days in Dulbecco's Modified Eagle's medium (Welgene, LM001-05) supplemented with 10% FBS without tetracycline. The cells were seeded in 48-well culture plates (1×10^5 cells/well) and treated with each compound at five concentrations (0 μM (0.8% DMSO as a control), 33 μM, 50 μM, 66 μM, and 100 μM). After 65 hours of treatment, viability was measured using EZ-Cytox cell viability assay kit (Daeil Lab Service) according to the manufacturer's instructions. The absorbance was measured at 450 nm using a spectrophotometer (Spark, Tecan). Here, NVR-3-778 (denoted as NVR) was used as a positive control.

In the next data set the test system is intracellular HBV DNA. Put plainly: Real-time PCR for intracellular HBV DNA in HepAD38 cells. Type of data set: cell-based, hepatitis B virus (HBV). The following applies: treated for 65 hours, intracellular HBV DNA by real-time PCR. On the procedure: HepAD38 cells were cultured in DMEM medium (Welgene) supplemented with 200 unit/mL penicillin, 200 μg/mL streptomycin, and 10% FBS. During maintenance and passage, the cells were cultured together with 0.4 μg/mL tetracycline. Two days before the treatment with compounds for inducing HBV replication was started, the medium was replaced with a tetracycline-free complete growth medium. […]
HepAD38 cells were treated with a compound for 65 hours and then recovered, and intracellular HBV DNA was extracted therefrom according to the protocol in the DNeasy Blood & Tissue Kit (Qiagen). The primers and probes used to quantify HBV DNA were 5′-[…]-3′, 5′-[…]-3′, and 5′-/56-FAM/TGT CCT GGT/ZEN/[…]/3IABKFQ/-3′. The HBV DNA was amplified by real-time PCR assay using LightCycler 480 (Roche) (J. Virol., 2018, 92(16):e00339-18). All of the processes were confirmed in duplicate.
(In general: Quantitative PCR measures a nucleic acid by following its amplification.)

Data set [2] is described as follows: Cell viability assay (EZ-Cytox) in HepAD38 cells. Type of data set: cell-based. To be noted: human, 65 hours of treatment; for CC50 at 65 h: read-out: Cytotoxicity CC50; for viability at 65 h, 100 µM: read-out: Cytotoxicity % Livability (@100 μM). On the procedure: as §1
Setting [3] is: NVR value of the same run in brackets, read-out: Protein EC50.
[4] abbreviates: @30 μM, read-out: Protein % inhibition rate (@30 μM).
Where [5] appears, read: Hepatitis B virus, HePAD38, 65 h.

Sequence of Protein (capsid assembly) (P03146 whole entry): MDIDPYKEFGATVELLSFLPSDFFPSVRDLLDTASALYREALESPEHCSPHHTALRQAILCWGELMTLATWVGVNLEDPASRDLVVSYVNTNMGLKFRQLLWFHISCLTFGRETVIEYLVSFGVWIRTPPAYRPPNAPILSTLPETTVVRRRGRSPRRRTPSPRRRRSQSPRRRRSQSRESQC

`O=C(Nc1ccc(F)c(Cl)c1)N(Cc1nnc2n1CCOC2)c1ccc2c(c1)OCO2` [Example 4, 1-(Benzo[d][1,3]dioxol-5-yl)-3-(3-chloro-4-fluorophenyl)-1-((6,8-dihydro-5H-[1,2,4]triazolo[3,4-c][1,4]oxazin-3-yl)methyl)urea]: in data set [1] (@30 μM), the “Protein % inhibition rate (@30 μM)” value was determined as 84%. For the same molecule, the 50% effective concentration (EC50) in data set [1] (setting [3]) stood at 6.8 µM. Moreover, in the data set with HepAD38 cells (read-out: Cytotoxicity CC50), the CC50 was greater than 100 µM. This molecule registered an IC50 with intracellular HBV DNA of 0.25 µM.

`COc1ccc(N(Cc2nnc3n2CCOCC3)C(=O)Nc2ccc(F)c(Cl)c2)cn1` [Example 40, 3-(3-Chloro-4-fluorophenyl)-1-(6-methoxypyridin-3-yl)-1-((5,6,8,9-tetrahydro-[1,2,4]triazolo[4,3-d][1,4]oxazepin-3-yl)methyl)urea]: the inhibition at 30 µM in data set [1] (setting [4]) amounted to 82.8%. In addition, the 50% effective concentration (EC50) in data set [1] (setting [3]) was determined as 1.5 µM. Further, the “Cytotoxicity % Livability (@100 μM)” value in the data set with HepAD38 cells (@100 μM) is reported as 100.3%. In data set [2], the CC50 at 65 h was greater than 100 µM and the viability at 65 h, 100 µM stood at 88.6%. For the same molecule, in the data set with intracellular HBV DNA (setting [5]), the IC50 is 0.084 µM.

As for `O=C(Nc1ccc(F)c(Cl)c1)N(Cc1nnc2n1CCCCC2)c1ccc(C(F)(F)F)cc1` [Example 13, 3-(3-Chloro-4-fluorophenyl)-1-((6,7,8,9-tetrahydro-5H-[1,2,4]triazolo[4,3-a]azepin-3-yl)methyl)-1-(4-(trifluoromethyl)phenyl)urea], in data set [1] (setting [4]), the inhibition at 30 µM worked out at 89%. The EC50 in data set [1] (setting [3]) was 5 µM. Further, in data set [2], the CC50 at 65 h was greater than 100 µM and the viability at 65 h, 100 µM was found to be 106%. For the same molecule, the IC50 in the data set with intracellular HBV DNA (setting [5]) turned out to be 0.23 µM.

Consider `O=C(Nc1ccc(F)c(Cl)c1)N(Cc1nnc2n1CCOCC2)c1ccc2c(c1)OCO2` [Example 7, 1-(Benzo[d][1,3]dioxol-5-yl)-3-(3-chloro-4-fluorophenyl)-1-((5,6,8,9-tetrahydro-[1,2,4]triazolo[4,3-d][1,4]oxazepin-3-yl)methyl)urea], for which, in data set [1] (setting [4]), the inhibition at 30 µM amounted to 80%. Besides, the EC50 in data set [1] (setting [3]) is 1 µM. Besides, in data set [2], the CC50 at 65 h was greater than 100 µM and the viability at 65 h, 100 µM was 96.4%. Also, inhibition in the data set on intracellular HBV DNA (setting [5]) was half-maximal at 0.03 µM (IC50).

As to `O=C(Nc1cccc(Cl)c1)N(Cc1nnc2n1CCCC2)c1ccc2c(c1)OCO2` [Example 41, 1-(Benzo[d][1,3]dioxol-5-yl)-3-(3-chlorophenyl)-1-((5,6,7,8-tetrahydro-[1,2,4]triazolo[4,3-a]pyridin-3-yl)methyl)urea], in data set [1] (setting [4]), the inhibition at 30 µM amounted to 59%. Also, the EC50 in data set [1] (setting [3]) worked out at 2.9 µM. Also, in data set [2], the cytotoxic concentration (CC50) at 65 h was greater than 100 µM and the viability at 65 h, 100 µM came to 97.1%. Moreover, the IC50 in the data set on intracellular HBV DNA (setting [5]) stood at 0.23 µM.

In the case of `COc1ccc(N(Cc2nnc(C)n2C(C)C)C(=O)Nc2ccc(F)c(Cl)c2)cc1` [Example 26, 3-(3-Chloro-4-fluorophenyl)-1-((4-isopropyl-5-methyl-4H-1,2,4-triazol-3-yl)methyl)-1-(4-methoxyphenyl)urea], the EC50 in data set [1] (setting [3]) stood at 6.2 µM. Also, the inhibition at 30 µM in data set [1] (read-out: Protein % inhibition rate (@30 μM), @30 μM) came out at 2%. Further, in data set [2], the CC50 at 65 h is greater than 100 µM and the viability at 65 h, 100 µM came out at 91.5%. The molecule further returned an IC50 in the data set with intracellular HBV DNA (setting [5]) of 0.184 µM.

As for `Cc1cccc(NC(=O)N(Cc2nnc3n2CCCCC3)c2ccc3c(c2)OCO3)c1` [Example 1, 1-(Benzo[d][1,3]dioxol-5-yl)-1-((6,7,8,9-tetrahydro-5H-[1,2,4]triazolo[4,3-a]azepin-3-yl)methyl)-3-m-tolylurea], in data set [1], the response was half-maximal at 1.3 µM (EC50). In data set [1] (setting [4]), the inhibition at 30 µM turned out to be 72%. For the same molecule, in data set [2], the CC50 at 65 h was greater than 100 µM and the viability at 65 h, 100 µM amounted to 95%. In the data set on intracellular HBV DNA (setting [5]), this molecule yielded an IC50 of 0.02 µM.

As to `CC(c1nnc2n1CCOCC2)N(C(=O)Nc1ccc(F)c(Cl)c1)c1ccc2c(c1)OCO2` (stereo not shown) [Example 33, 1-(Benzo[d][1,3]dioxol-5-yl)-3-(3-chloro-4-fluorophenyl)-1-(1-(5,6,8,9-tetrahydro-[1,2,4]triazolo[4,3-d][1,4]oxazepin-3-yl)ethyl)urea], the inhibition at 30 µM in data set [1] (setting [4]) came out at 26%. In addition, the EC50 in data set [1] (setting [3]) came out at 4.3 µM. In data set [2], the CC50 at 65 h was greater than 100 µM and the viability at 65 h, 100 µM worked out at 88.3%. The same molecule showed an IC50 in the data set with intracellular HBV DNA (setting [5]) of 0.36 µM.

Regarding `COc1ccc(N(C(=O)Nc2ccc(F)c(Cl)c2)C(C)c2nnc3n2CCCCC3)cc1` (stereo not shown) [Example 23, 3-(3-Chloro-4-fluorophenyl)-1-(4-methoxyphenyl)-1-(1-(6,7,8,9-tetrahydro-5H-[1,2,4]triazolo[4,3-a]azepin-3-yl)ethyl)urea], in data set [1] (setting [4]), the inhibition at 30 µM turned out to be 47%. Further, the concentration for a half-maximal effect (EC50) in data set [1] (setting [3]) was 3.1 µM. Moreover, in data set [2], the CC50 at 65 h is greater than 100 µM and the viability at 65 h, 100 µM came to 95.1%. The same molecule showed an IC50 in the data set with intracellular HBV DNA (setting [5]) of 0.32 µM.

Take `COc1ccc(N(Cc2nnc3n2CCCCC3)C(=O)Nc2ccc(F)c(Cl)c2)cn1` [Example 44, 3-(3-Chloro-4-fluorophenyl)-1-(6-methoxypyridin-3-yl)-1-((6,7,8,9-tetrahydro-5H-[1,2,4]triazolo[4,3-a]azepin-3-yl)methyl)urea]: the inhibition at 30 µM in data set [1] (setting [4]) came out at 82%. In data set [1] (setting [3]), the EC50 is 1.4 µM. In data set [2], the CC50 at 65 h is greater than 100 µM and the viability at 65 h, 100 µM came to 103%. For the same molecule, half-maximal inhibition in the data set with intracellular HBV DNA (setting [5]) (IC50) required 0.05 µM.

As to `O=C(Nc1ccc(F)c(Cl)c1)N(Cc1nnc2n1CCCCC2)c1ccon1` [Example 36, 3-(3-Chloro-4-fluorophenyl)-1-(isoxazol-3-yl)-1-((6,7,8,9-tetrahydro-5H-[1,2,4]triazolo[4,3-a]azepin-3-yl)methyl)urea], the inhibition at 30 µM in data set [1] (setting [4]) amounted to 77.6%. For the same molecule, in data set [1] (setting [3]), the EC50 was 1.5 µM. Besides, in data set [2], the CC50 at 65 h was greater than 100 µM and the viability at 65 h, 100 µM was 90.4%. Half-maximal inhibition in the data set on intracellular HBV DNA (setting [5]) (IC50) required 0.4 µM.
